Results from patent publication US20090203707A1, “METHODS FOR TREATING PAIN” (priority 2008, published 2009).
“Also recorded” adds a separate entry of the source. Where two headings read alike, the source gives them in different places.

What was measured:
[1] = biological target: SCN9A (Nav1.7) Na+ channel, α- and β1 subunits, in HEK293 cells (Homo sapiens, UniProt Q15858); assay: Whole-cell patch clamp, Nav1.7 peak INa in HEK293 cells (Example 1); details: for Mean amplitude of Nav1.7 peak INa, fraction of control: −100 mV to 0 mV, 50 msec
[2] = Solubility of Ranolazine in aqueous solutions versus pH; format: physicochemical
[3] = tested on: endogenous TTX-S INa in ND7-23 cells; assay: cells; format: cell-based, rat DRG/mouse neuroblastoma hybrid; details: V0, recorded in the absence of TTX
[4] = tested on: hNav1.7 and rNav1.8 Na+ channels; assay: Rate of development of slow inactivation, stated for hNav1.7 and rNav1.8 together; format: cell-based; details: 30 μM
Procedure: The time dependence of development of inactivation of hNav1.7 (−20 mV, FIG. 7A, n=4-5 cells) and rNav1.8 (+20 mV, FIG. 7B, n=4-5 cells) INa in the absence (▪) and presence (□) of 30 μM ranolazine is shown in FIG. 7. For control conditions, the progressive decay of currents with increasing conditioning pulse duration reflects entry of channels into inactivated states. The development of slow inactivation of hNav1.7+β1 and rNav1.8 channels could be fit with double and triple exponential functions, respectively (see Table 6, control, Development of slow inactivation).
As shown previously, (Vijayaragavan et al (2001) J. Neurosci 21:7909-18) the onset of slow inactivation of Nav1.8 channels is rapid when compared to Nav1.7 channels (˜fourfold, see Table 6, control, τF=10.78 and 43.97 msec for Nav1.8 and Nav1.7 channels, respectively). […] The time constants for development of inactivation of hNav1.7 (n=4 cells) and rNav1.8 (n=5 cells) INa with a depolarizing prepulse to −40 mV (hNav1.7) or −20 mV (rNav1.8) in the absence and presence of 30 μM ranolazine are given in Table 6.

[5] = biological target: hNav1.7+β1 subunits in HEK293 cells (Homo sapiens, UniProt Q15858); assay: Whole-cell patch clamp, hNav1.7 INa in HEK293 cells (Example 2); details: for Kd: estimated from shift of steady-state inactivation curve (Bean equation); for IC50: IC50 value, block of Nav1.7 INa
[6] = biological target: rNav1.8 Na+ channels in ND7-23 cells (Rattus norvegicus, UniProt Q62968); assay: Whole-cell patch clamp, rNav1.8 INa in ND7-23 cells (Example 2); details: for Use-dependent block of rNav1.8 INa: 40 pulses of 10 msec to +50 mV; for Kd: estimated from shift of steady-state inactivation curve (Bean equation)
[7] = tested on: CFA-induced thermal hyperalgesia; assay: CFA-induced thermal hyperalgesia, paw withdrawal latency; format: in vivo, Male Sprague Dawley rats; details: day 3 after CFA
[8] = tested on: CFA-induced mechanical allodynia; assay: CFA-induced mechanical allodynia, electro-von Frey withdrawal threshold; format: in vivo, Male Sprague Dawley rats
[9] = holding −100 mV to 0 mV, 0.1 Hz
[10] = 10 μM, 10 sec prepulse, n=4 cells
[11] = 10 μM, 100 msec prepulse, n=4 cells
[12] = Dissociation constant for inactivated state (Kdi)
[13] = Dissociation constant for rested state (Kdr)
[14] = 10 μM, 10 sec prepulse, n=6 cells
[15] = male, Sprague Dawley, rat, in vivo, po

Chain of rNav1.8 Na+ channels in ND7-23 cells (Q62968 whole entry): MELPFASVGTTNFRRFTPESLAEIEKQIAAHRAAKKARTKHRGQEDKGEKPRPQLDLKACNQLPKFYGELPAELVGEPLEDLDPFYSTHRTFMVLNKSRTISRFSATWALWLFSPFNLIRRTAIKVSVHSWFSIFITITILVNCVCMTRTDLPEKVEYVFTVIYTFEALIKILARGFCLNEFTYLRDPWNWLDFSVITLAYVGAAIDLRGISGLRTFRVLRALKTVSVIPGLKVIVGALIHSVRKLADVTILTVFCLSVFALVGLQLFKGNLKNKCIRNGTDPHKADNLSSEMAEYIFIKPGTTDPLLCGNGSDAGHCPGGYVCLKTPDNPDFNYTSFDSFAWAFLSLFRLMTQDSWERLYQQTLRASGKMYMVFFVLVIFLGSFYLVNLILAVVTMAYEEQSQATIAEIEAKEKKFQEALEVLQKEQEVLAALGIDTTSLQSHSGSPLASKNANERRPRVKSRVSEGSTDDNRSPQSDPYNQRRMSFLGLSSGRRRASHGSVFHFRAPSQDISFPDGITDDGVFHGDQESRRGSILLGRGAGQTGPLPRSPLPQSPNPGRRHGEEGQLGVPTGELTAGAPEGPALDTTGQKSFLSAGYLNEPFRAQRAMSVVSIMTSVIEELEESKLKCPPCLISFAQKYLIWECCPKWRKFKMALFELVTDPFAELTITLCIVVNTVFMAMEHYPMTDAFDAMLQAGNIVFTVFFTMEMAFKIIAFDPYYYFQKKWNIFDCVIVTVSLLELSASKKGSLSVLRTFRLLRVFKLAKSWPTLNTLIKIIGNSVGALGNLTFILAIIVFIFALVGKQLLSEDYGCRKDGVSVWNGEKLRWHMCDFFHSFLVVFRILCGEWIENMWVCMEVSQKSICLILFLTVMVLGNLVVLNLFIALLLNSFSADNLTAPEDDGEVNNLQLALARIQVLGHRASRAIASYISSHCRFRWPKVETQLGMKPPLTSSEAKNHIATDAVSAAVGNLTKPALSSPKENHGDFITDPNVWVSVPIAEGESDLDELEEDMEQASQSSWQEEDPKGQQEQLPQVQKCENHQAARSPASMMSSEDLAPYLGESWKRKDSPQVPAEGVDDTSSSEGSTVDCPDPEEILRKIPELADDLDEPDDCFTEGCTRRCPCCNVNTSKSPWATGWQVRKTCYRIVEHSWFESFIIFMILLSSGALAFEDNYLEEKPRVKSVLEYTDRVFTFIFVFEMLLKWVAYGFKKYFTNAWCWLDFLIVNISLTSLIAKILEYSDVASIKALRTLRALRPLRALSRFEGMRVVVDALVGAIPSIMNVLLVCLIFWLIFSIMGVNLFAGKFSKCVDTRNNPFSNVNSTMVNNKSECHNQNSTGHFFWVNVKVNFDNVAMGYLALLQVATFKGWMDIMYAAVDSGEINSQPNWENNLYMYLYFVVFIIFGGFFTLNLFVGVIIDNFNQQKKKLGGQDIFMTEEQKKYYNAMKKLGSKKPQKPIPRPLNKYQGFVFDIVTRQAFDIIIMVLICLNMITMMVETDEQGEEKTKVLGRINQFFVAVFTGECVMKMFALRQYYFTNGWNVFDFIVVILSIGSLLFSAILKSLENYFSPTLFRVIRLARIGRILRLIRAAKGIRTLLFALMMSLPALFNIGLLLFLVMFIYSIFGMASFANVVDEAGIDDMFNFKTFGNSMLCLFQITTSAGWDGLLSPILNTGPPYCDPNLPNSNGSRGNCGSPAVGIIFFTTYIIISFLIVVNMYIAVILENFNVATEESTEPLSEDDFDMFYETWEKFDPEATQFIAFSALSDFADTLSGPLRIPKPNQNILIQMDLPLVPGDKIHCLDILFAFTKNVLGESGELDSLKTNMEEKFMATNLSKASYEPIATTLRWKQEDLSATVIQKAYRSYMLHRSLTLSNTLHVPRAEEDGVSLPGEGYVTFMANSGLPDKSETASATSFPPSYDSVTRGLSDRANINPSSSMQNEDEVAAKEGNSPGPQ
Chain of SCN9A (Nav1.7) Na+ channel, α- and β1 subunits, in HEK293 cells (Q15858 whole entry): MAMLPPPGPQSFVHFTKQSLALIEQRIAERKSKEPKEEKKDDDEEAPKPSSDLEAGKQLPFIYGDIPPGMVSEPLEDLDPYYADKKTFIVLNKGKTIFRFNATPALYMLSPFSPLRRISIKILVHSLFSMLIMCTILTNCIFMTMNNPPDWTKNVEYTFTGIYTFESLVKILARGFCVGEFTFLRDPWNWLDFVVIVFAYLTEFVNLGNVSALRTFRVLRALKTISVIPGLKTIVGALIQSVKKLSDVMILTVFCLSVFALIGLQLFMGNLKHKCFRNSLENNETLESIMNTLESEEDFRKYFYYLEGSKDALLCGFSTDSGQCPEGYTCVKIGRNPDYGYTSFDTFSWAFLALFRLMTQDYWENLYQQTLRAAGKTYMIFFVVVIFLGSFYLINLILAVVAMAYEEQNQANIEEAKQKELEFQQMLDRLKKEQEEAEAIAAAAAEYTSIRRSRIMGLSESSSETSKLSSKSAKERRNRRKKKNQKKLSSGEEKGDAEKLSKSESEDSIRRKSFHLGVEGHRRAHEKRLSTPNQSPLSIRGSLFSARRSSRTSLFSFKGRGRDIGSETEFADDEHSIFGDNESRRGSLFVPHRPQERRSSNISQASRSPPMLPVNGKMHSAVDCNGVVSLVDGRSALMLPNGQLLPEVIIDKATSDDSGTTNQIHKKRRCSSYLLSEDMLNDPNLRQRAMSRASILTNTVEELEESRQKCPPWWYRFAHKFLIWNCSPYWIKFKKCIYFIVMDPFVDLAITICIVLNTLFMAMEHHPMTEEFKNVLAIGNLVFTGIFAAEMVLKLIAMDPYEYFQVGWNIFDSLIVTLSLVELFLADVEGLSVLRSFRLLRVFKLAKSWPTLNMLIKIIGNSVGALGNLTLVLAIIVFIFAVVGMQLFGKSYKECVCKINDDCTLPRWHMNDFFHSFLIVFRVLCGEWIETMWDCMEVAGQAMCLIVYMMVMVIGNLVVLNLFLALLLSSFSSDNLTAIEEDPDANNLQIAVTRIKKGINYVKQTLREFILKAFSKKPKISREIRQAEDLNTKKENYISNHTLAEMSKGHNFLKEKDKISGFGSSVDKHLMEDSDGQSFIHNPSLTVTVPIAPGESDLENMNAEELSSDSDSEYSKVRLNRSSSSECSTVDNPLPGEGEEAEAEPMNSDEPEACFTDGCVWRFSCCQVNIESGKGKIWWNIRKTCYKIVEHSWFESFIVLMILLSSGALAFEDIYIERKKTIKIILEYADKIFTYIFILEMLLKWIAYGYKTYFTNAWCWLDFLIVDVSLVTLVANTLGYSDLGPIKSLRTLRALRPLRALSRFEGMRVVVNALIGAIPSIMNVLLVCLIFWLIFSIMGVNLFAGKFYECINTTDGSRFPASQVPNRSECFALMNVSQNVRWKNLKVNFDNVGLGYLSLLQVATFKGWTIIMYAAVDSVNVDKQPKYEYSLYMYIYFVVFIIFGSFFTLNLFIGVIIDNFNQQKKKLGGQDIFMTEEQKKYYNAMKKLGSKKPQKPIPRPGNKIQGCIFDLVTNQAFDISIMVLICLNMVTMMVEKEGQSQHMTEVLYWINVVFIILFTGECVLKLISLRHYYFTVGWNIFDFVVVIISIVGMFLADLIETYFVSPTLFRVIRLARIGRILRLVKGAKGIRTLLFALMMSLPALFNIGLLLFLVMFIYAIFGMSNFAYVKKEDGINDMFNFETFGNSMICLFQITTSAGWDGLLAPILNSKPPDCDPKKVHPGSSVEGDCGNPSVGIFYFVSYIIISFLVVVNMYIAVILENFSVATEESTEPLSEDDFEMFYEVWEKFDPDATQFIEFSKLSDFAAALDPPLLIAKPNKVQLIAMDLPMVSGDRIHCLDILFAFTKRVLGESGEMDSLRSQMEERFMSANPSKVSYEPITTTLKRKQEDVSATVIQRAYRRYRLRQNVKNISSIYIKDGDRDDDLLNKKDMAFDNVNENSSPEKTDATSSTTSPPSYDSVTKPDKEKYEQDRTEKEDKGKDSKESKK
Chain of SCN9A (Nav1.7) Na+ channel, α- and β1 subunits, in HEK293 cells (Q07699 19-218 partner): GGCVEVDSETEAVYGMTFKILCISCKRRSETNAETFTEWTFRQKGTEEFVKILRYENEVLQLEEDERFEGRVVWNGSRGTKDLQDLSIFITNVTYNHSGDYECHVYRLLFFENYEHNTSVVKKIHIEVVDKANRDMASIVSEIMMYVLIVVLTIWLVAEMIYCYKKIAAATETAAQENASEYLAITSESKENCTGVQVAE
Chain of hNav1.7+β1 subunits in HEK293 cells (Q15858 whole entry): as the sequence (Q15858 whole entry) above
Chain of hNav1.7+β1 subunits in HEK293 cells (Q07699 19-218 partner): as the sequence (Q07699 19-218 partner) above

## COc1ccccc1OCC(O)CN1CCN(CC(=O)Nc2c(C)cccc2C)CC1 (racemic) [Ranolazine, (±)-N-(2,6-dimethylphenyl)-4-[2-hydroxy-3-(2-methoxyphenoxy)-propyl]-1-piperazineacetamide]
[1]; 1 μM, 0.1 Hz
  Mean amplitude of Nav1.7 peak INa, fraction of control: 0.9114
[1]; 3 μM, 0.1 Hz
  Mean amplitude of Nav1.7 peak INa, fraction of control: 0.7275
[1]; 10 μM, 0.1 Hz
  Mean amplitude of Nav1.7 peak INa, fraction of control: 0.4692
[1]; 30 μM, 0.1 Hz
  Mean amplitude of Nav1.7 peak INa, fraction of control: 0.327
[1]; 100 μM, 40 pulses −100 to 0 mV, 2, 5, 20 or 200 msec, 5 Hz
  Block of Nav1.7 peak INa at end of pulse train (pulse 40): ~82.72±0.71%
[1]; [9]
  p of logistic fit (Hill coefficient nH) for block of Nav1.7 peak INa: 0.8368
  x0 of logistic fit (IC50) for block of Nav1.7 peak INa: 10.3585 μM
[2]; Solution pH 4.81
  USP Solubility Class: Freely Soluble
[2]; Solution pH 4.89
  USP Solubility Class: Soluble
[2]; Solution pH 4.90
  USP Solubility Class: Soluble
[2]; Solution pH 5.04
  USP Solubility Class: Soluble
[2]; Solution pH 5.35
  USP Solubility Class: Sparingly Soluble
[2]; Solution pH 5.82
  USP Solubility Class: Slightly soluble
[2]; Solution pH 6.46
  USP Solubility Class: Slightly soluble
[2]; Solution pH 6.73
  USP Solubility Class: Very slightly soluble
[2]; Solution pH 7.08
  USP Solubility Class: Very slightly soluble
[2]; Solution pH 7.59 (unbuffered water)
  USP Solubility Class: Very slightly soluble
[2]; Solution pH 7.79
  USP Solubility Class: Very slightly soluble
[2]; Solution pH 12.66
  USP Solubility Class: Very slightly soluble
[3]; ND7/23, read-out: IC50 value, block of TTX-S INa
  IC50: 9.05 ± 0.56 µM
[3]
  Hill Coefficient, block of TTX-S INa: [1.15 ± 0.08]
[4]; −20 mV (hNav1.7), +20 mV (rNav1.8)
  Rate of development of slow inactivation, faster than control: 2-5 fold
[4]; −40 mV (hNav1.7), −20 mV (rNav1.8)
  Rate of development of slow inactivation, faster than control: 4-10 fold
[5]; 1 μM
  Inactivation V1/2 (steady-state intermediate, 1 sec prepulse): −78.97 ± 3.09 mV
  Inactivation slope factor k (1 sec prepulse): 4.80 ± 0.21 mV/e-fold
[5]; 3 μM
  Inactivation V1/2 (steady-state intermediate, 1 sec prepulse): −84.44 ± 3.64 mV
  Inactivation slope factor k (1 sec prepulse): 4.76 ± 0.11 mV/e-fold
[5]; 10 μM
  Activation V1/2: −33.96 ± 2.06 mV
  Activation slope factor k: 4.77 ± 0.32 mV/e-fold
  Inactivation V1/2 (steady-state intermediate, 1 sec prepulse): −86.99 ± 2.86 mV
  Inactivation slope factor k (1 sec prepulse): 4.56 ± 0.1 mV/e-fold
[5]; [10]
  V1/2 of steady-state slow inactivation: −61.39±3.54
  k of steady-state slow inactivation: 14.22±2.14
[5]; [11]
  V1/2 of steady-state fast inactivation: −86.15±3.62
  k of steady-state fast inactivation: 7.55±0.82
[5]; 30 μM
  Inactivation V1/2 (steady-state intermediate, 1 sec prepulse): −89.07 ± 5.41 mV
  Inactivation slope factor k (1 sec prepulse): 5.15 ± 0.31 mV/e-fold
[5]; 30 μM, at −20 mV
  Development of slow inactivation, AF: 0.24 ± 0.02
  Development of slow inactivation, AS: 0.56 ± 0.01
  Development of slow inactivation, τF: 9.14 ± 2.49 ms
  Development of slow inactivation, τS: 1657.71 ± 180.23 ms
[5]; 30 μM, at −20 mV, n=4 cells
  Time constant of INa decay (single exponential): 0.68 ± 0.15 ms
[5]; 30 μM, at −40 mV
  Development of slow inactivation, AF: 0.30 ± 0.02
  Development of slow inactivation, AS: 0.67 ± 0.02
  Development of slow inactivation, τF: 23.99 ± 2.92 ms
  Development of slow inactivation, τS: 1845.75 ± 129.03 ms
[5]; [12]
  Kd: 0.47 µM
[5]; [13]
  Kd: 12.1 µM
[5]; V0, holding potential −120 mV
  IC50: 10.4 ± 1.25 µM
  Hill Coefficient, block of Nav1.7 INa: [0.84 ± 0.09]
[5]; V0.5, holding potential −70 mV
  IC50: 3.25 ± 0.17 µM
  Hill Coefficient, block of Nav1.7 INa: [1.33 ± 0.08]
[6]
  IC50: 21.5 ± 3.01 µM
[6]; 1 μM
  Inactivation V1/2 (steady-state intermediate, 1 sec prepulse): −42.75 ± 3.93 mV
  Inactivation slope factor K (1 sec prepulse): 7.38 ± 0.93 mV/e-fold
[6]; 3 μM
  Inactivation V1/2 (steady-state intermediate, 1 sec prepulse): −47.61 ± 4.56 mV
  Inactivation slope factor K (1 sec prepulse): 7.14 ± 0.61 mV/e-fold
[6]; 10 μM
  Activation V1/2: 4.71 ± 2.58 mV
  Activation slope factor K: 8.55 ± 1.62 mV/e-fold
  Inactivation V1/2 (steady-state intermediate, 1 sec prepulse): −57.88 ± 5.73 mV
  Inactivation slope factor K (1 sec prepulse): 7.59 ± 0.79 mV/e-fold
[6]; [14]
  V1/2 of steady-state slow inactivation: −54.57±3.69
  k of steady-state slow inactivation: 8.38±0.76
[6]; [11]
  V1/2 of steady-state fast inactivation: −40.66±3.23
  k of steady-state fast inactivation: 11.45±1.21
[6]; 30 μM
  Inactivation V1/2 (steady-state intermediate, 1 sec prepulse): −59.52 ± 2.18 mV
  Inactivation slope factor K (1 sec prepulse): 7.59 ± 1.09 mV/e-fold
[6]; 30 μM, 1 Hz
  Use-dependent block of rNav1.8 INa: 60.20±2.04%
[6]; 30 μM, 5 Hz
  Use-dependent block of rNav1.8 INa: 67.96±4.68%
[6]; 30 μM, 10 Hz
  Use-dependent block of rNav1.8 INa: 70.16±2.09%
[6]; 30 μM, at +20 mV
  Development of slow inactivation, AF: 0.53 ± 0.07
  Development of slow inactivation, AI: 0.25 ± 0.07
  Development of slow inactivation, AS: 0.09 ± 0.02
  Development of slow inactivation, τF: 5.59 ± 1.08 ms
  Development of slow inactivation, τI: 34.11 ± 14.14 ms
  Development of slow inactivation, τS: 703.24 ± 373.82 ms
[6]; 30 μM, at +20 mV, n=4 cells
  Time constant of INa decay (single exponential): 1.60 ± 0.04 ms
[6]; 30 μM, at −20 mV
  Development of slow inactivation, AF: 0.52 ± 0.05
  Development of slow inactivation, AI: 0.30 ± 0.06
  Development of slow inactivation, AS: 0.18 ± 0.03
  Development of slow inactivation, τF: 22.75 ± 2.31 ms
  Development of slow inactivation, τI: 98.08 ± 13.65 ms
  Development of slow inactivation, τS: 1203.00 ± 337.50 ms
[6]; 100 μM, 3, 5, 20 or 200 msec pulses to +50 mV, 5 Hz
  Steady-state use-dependent block of rNav1.8 INa: 71.69±0.85%
[6]; [12]
  Kd: 0.64 µM
[6]; [13]
  Kd: 22.8 µM
[6]; IC50 value, block of Nav1.8 INa, V0.5, holding potential −40 mV
  IC50: 4.33 ± 0.52 µM
[6]; V0, holding potential −100 mV
  Hill Coefficient, block of Nav1.8 INa: [0.90 ± 0.11]
[6]; V0.5, holding potential −40 mV
  Hill Coefficient, block of Nav1.8 INa: [0.89 ± 0.09]
[7]; i.p. 10, 20, 50 mg/kg, 30 minutes after dosing
  Effect on paw withdrawal from thermal stimulation: no significant effect on paw sensitivity was observed; also recorded: no significant effect of treatment on paw withdrawal from thermal stimulation
[7]; p.o. 20, 50, 100, 200 mg/kg, 1 hour after gavage
  Effect on paw withdrawal from thermal stimulation: no significant effect of treatment on paw withdrawal from thermal stimulation
[8]; i.p. 10, 20, 50 mg/kg, 30 minutes after dosing, day 3 after CFA
  Effect on mechanical allodynia (paw sensitivity to mechanical stimulation): clearly reduced paw sensitivity to mechanical stimulation in a dose-dependent fashion; also recorded: dose dependent reduction in mechanical allodynia
[8]; oral gavage, plateau to the analgesic response
  Dose at which maximum analgesic response was achieved: 100 mg/kg
[8]; p.o. 200 mg/kg
  Analgesic effect at highest oral dose: non-significant trend toward a reduction in analgesic effect
[8]; p.o. 20, 50, 100, 200 mg/kg, 1 hour after gavage, day 3 after CFA
  Effect on mechanical allodynia: dose dependent reduction in mechanical allodynia
[8]; p.o., no additional benefit at higher doses (FIG. 11 legend)
  Optimum oral dosing for reduction of mechanical allodynia: 50 mg/kg
Male Sprague Dawley rats; doses of 100 mg/kg (i.p.)
  Death: 50%
Male Sprague Dawley rats; male, Sprague Dawley, rat, in vivo, ip
  Doses at which adverse effects were noted: ≥ 100 mg/kg
Male Sprague Dawley rats; [15]
  Time of onset of adverse pulmonary event after drug administration: approximately 1 hour
  Time to resolution of adverse pulmonary effect after gavage: ≤ 24 h
Male Sprague Dawley rats; rat, in vivo, po
  Adverse event: respiratory strider
